# Data as given in ChEMBL document CHEMBL3862012, “Methylene versus carbonyl bridge in the structure of new tubulin polymerization inhibitors with tricyclic A-rings” (Bioorg Med Chem, 2016).
# Assays:
# Type in all cases: functional
# [1] = Cytotoxicity against human T47D cells assessed as growth inhibition at 10 uM after 48 hrs by SRB assay relative to control; settings: read-out: GI
# [2] = Cytotoxicity against human COLO205 cells assessed as growth inhibition at 10 uM after 48 hrs by SRB assay relative to control; settings: COLO 205, 48 h, read-out: GI
# [3] = Cytotoxicity against human RPMI8226 cells assessed as growth inhibition at 10 uM after 48 hrs by SRB assay relative to control; settings: RPMI-8226, 48 h, read-out: GI
# [4] = Cytotoxicity against human NCI-H23 cells assessed as growth inhibition at 10 uM after 48 hrs by SRB assay relative to control; settings: NCI-H23, 48 h, read-out: GI
# [5] = Cytotoxicity against human HCT15 cells assessed as growth inhibition at 10 uM after 48 hrs by SRB assay relative to control; settings: HCT-15, 48 h, read-out: GI
# [6] = Cytotoxicity against human A498 cells assessed as growth inhibition at 10 uM after 48 hrs by SRB assay relative to control; settings: A498, 48 h, read-out: GI
# [7] = Cytotoxicity against human NCI-H322M cells assessed as growth inhibition at 10 uM after 48 hrs by SRB assay relative to control; settings: read-out: GI
# [8] = Cytotoxicity against human SR cells assessed as growth inhibition at 10 uM after 48 hrs by SRB assay relative to control; settings: read-out: GI
# [9] = Cytotoxicity against human TK10 cells assessed as growth inhibition at 10 uM after 48 hrs by SRB assay relative to control; settings: TK-10, 48 h, read-out: GI
# [10] = Cytotoxicity against human OVCAR8 cells assessed as growth inhibition at 10 uM after 48 hrs by SRB assay relative to control; settings: OVCAR-8, 48 h, read-out: GI
# [11] = Cytotoxicity against human HCT116 cells assessed as growth inhibition at 10 uM after 48 hrs by SRB assay relative to control; settings: HCT-116, 48 h, read-out: GI
# [12] = Cytotoxicity against human Hs 578T cells assessed as growth inhibition at 10 uM after 48 hrs by SRB assay relative to control; settings: read-out: GI
# [13] = Cytotoxicity against human NCI-ADR-RES cells assessed as growth inhibition at 10 uM after 48 hrs by SRB assay relative to control; settings: read-out: GI
# [14] = Cytotoxicity against human KM12 cells assessed as growth inhibition at 10 uM after 48 hrs by SRB assay relative to control; settings: KM12, 48 h, read-out: GI
# [15] = Cytotoxicity against human RXF393 cells assessed as growth inhibition at 10 uM after 48 hrs by SRB assay relative to control; settings: RXF 393, 48 h, read-out: GI
# [16] = Cytotoxicity against human UACC257 cells assessed as growth inhibition at 10 uM after 48 hrs by SRB assay relative to control; settings: UACC-257, 48 h, read-out: GI
# [17] = Cytotoxicity against human HL-60(TB) cells assessed as growth inhibition at 10 uM after 48 hrs by SRB assay relative to control; settings: HL-60, 48 h, read-out: GI
# [18] = Cytotoxicity against human HCC2998 cells assessed as growth inhibition after 48 hrs by SRB assay; settings: HCC 2998, 48 h
# [19] = Cytotoxicity against human CCRF-CEM cells assessed as growth inhibition after 48 hrs by SRB assay
# [20] = Cytotoxicity against human NCI-H226 cells assessed as growth inhibition at 10 uM after 48 hrs by SRB assay relative to control; settings: NCI-H226, 48 h, read-out: GI
# [21] = Cytotoxicity against human SN12C cells assessed as growth inhibition after 48 hrs by SRB assay
# [22] = Cytotoxicity against human OVCAR5 cells assessed as growth inhibition after 48 hrs by SRB assay; settings: OVCAR-5, 48 h
# [23] = Cytotoxicity against human OVCAR8 cells assessed as growth inhibition after 48 hrs by SRB assay; settings: OVCAR-8, 48 h
# [24] = Cytotoxicity against human NCI-H23 cells assessed as growth inhibition after 48 hrs by SRB assay; settings: NCI-H23, 48 h
# [25] = Cytotoxicity against human BT549 cells assessed as growth inhibition after 48 hrs by SRB assay; settings: BT-549, 48 h
# [26] = Cytotoxicity against human ACHN cells assessed as growth inhibition after 48 hrs by SRB assay
# [27] = Cytotoxicity against human HCT116 cells assessed as growth inhibition after 48 hrs by SRB assay; settings: HCT-116, 48 h
# [28] = Cytotoxicity against human K562 cells assessed as growth inhibition after 48 hrs by SRB assay; settings: K562, 48 h
# [29] = Cytotoxicity against human SF295 cells assessed as growth inhibition after 48 hrs by SRB assay; settings: SF-295, 48 h
# [30] = Cytotoxicity against human SF268 cells assessed as growth inhibition after 48 hrs by SRB assay; settings: SF-268, 48 h
# [31] = Cytotoxicity against human A549 cells assessed as growth inhibition after 48 hrs by SRB assay; settings: A549, 48 h
# [32] = Cytotoxicity against human SKOV3 cells assessed as growth inhibition after 48 hrs by SRB assay; settings: SK-OV-3, 48 h
# [33] = Cytotoxicity against human SNB75 cells assessed as growth inhibition after 48 hrs by SRB assay; settings: SNB-75, 48 h
# [34] = Cytotoxicity against human IGROV1 cells assessed as growth inhibition after 48 hrs by SRB assay; settings: IGROV-1, 48 h
# [35] = Cytotoxicity against human RPMI8226 cells assessed as growth inhibition after 48 hrs by SRB assay; settings: RPMI-8226, 48 h
# [36] = Cytotoxicity against human NCI-ADR-RES cells assessed as growth inhibition after 48 hrs by SRB assay
# [37] = Cytotoxicity against human SW620 cells assessed as growth inhibition after 48 hrs by SRB assay; settings: SW-620, 48 h
# [38] = Cytotoxicity against human SF539 cells assessed as growth inhibition after 48 hrs by SRB assay; settings: SF-539, 48 h
# [39] = Cytotoxicity against human HT-29 cells assessed as growth inhibition after 48 hrs by SRB assay; settings: HT-29, 48 h
# [40] = Cytotoxicity against human MDA-MB-435 cells assessed as growth inhibition after 48 hrs by SRB assay; settings: MDA-MB-435, 48 h
SMILES,inhibition of growth at 10 µM [1] [%],inhibition of growth at 10 µM [2] [%],inhibition of growth at 10 µM [3] [%],inhibition of growth at 10 µM [4] [%],inhibition of growth at 10 µM [5] [%],inhibition of growth at 10 µM [6] [%],inhibition of growth at 10 µM [7] [%],inhibition of growth at 10 µM [8] [%],inhibition of growth at 10 µM [9] [%],inhibition of growth at 10 µM [10] [%],inhibition of growth at 10 µM [11] [%],inhibition of growth at 10 µM [12] [%],inhibition of growth at 10 µM [13] [%],inhibition of growth at 10 µM [14] [%],inhibition of growth at 10 µM [15] [%],inhibition of growth at 10 µM [16] [%],inhibition of growth at 10 µM [17] [%],GI50 [18] [µM],GI50 [19] [µM],inhibition of growth at 10 µM [20] [%],further results
COc1ccc(CN2c3ccccc3Oc3ccccc32)cc1F,42,58,39,28,53,46,8,73,26,35,69,38,59,59,16,41,46,,,,
COc1ccc(CN2c3ccccc3Sc3ccccc32)cc1O,73,100,76,63,67,24,67,84,42,78,87,67,82,82,100,48,79,0.422,0.411,29,GI50 [21]: 1.29 µM; GI50 [22]: 12.7 µM; GI50 [23]: 0.508 µM; GI50 [24]: 0.364 µM; GI50 [25]: 0.773 µM; GI50 [26]: 1.56 µM; GI50 [27]: 0.386 µM; GI50 [28]: 0.365 µM; GI50 [29]: 0.225 µM; GI50 [30]: 0.966 µM; GI50 [31]: 0.471 µM; GI50 [32]: 0.521 µM; GI50 [33]: 0.18 µM; GI50 [34]: 1.93 µM; GI50 [35]: 0.42 µM; GI50 [36]: 0.291 µM; GI50 [37]: 0.504 µM; GI50 [38]: 0.27 µM; GI50 [39]: 0.724 µM; GI50 [40]: 0.234 µM
COc1ccc(CN2c3ccccc3Oc3ccccc32)cc1O,69,9,86,66,72,,44,83,36,64,86,69,75,79,50,61,84,,,6,
COc1ccc(CN2c3ccccc3Sc3ccccc32)c(C(F)(F)F)c1,74,100,71,56,63,96,51,88,34,69,92,77,77,80,100,46,76,2,0.454,42,GI50 [21]: 9.73 µM; GI50 [22]: 9.75 µM; GI50 [23]: 2.22 µM; GI50 [24]: 1.03 µM; GI50 [25]: 3.12 µM; GI50 [26]: 0.666 µM; GI50 [27]: 0.419 µM; GI50 [28]: 0.395 µM; GI50 [29]: 0.32 µM; GI50 [30]: 10.9 µM; GI50 [31]: 0.807 µM; GI50 [32]: 5.57 µM; GI50 [33]: 0.241 µM; GI50 [34]: 3.43 µM; GI50 [35]: 3 µM; GI50 [36]: 0.462 µM; GI50 [37]: 0.443 µM; GI50 [38]: 0.452 µM; GI50 [39]: 0.681 µM; GI50 [40]: 0.396 µM
